# In ChEMBL document CHEMBL1782028, “Evaluation of structurally diverse neuronal nicotinic receptor ligands for selectivity at the alpha6( *) subtype” (Bioorg Med Chem Lett, 2009):
# pEC50, pKi: −log10 of the molar value.
# Assays:
# [1] = target: Neuronal acetylcholine receptor subunit alpha-4/alpha-6/beta-2/beta-3 (Mus musculus) (UniProt Q9ERK7+O70174+Q9R0W9+Q8BMN3); test: Activity at alpha6alpha4beta3beta2 nAChR in mouse striatal synaptosomes assessed as alpha-conotoxic […] DA release relative to control; format: subcellular; conditions: Brain
# [2] = target: T1, Nicotinic acetylcholine receptor alpha-4/beta-2 (Mus musculus, UniProt Q8R493+Q9ERK7); test: Displacement of [125I]epibatidine from alpha4beta2* nAChR in C57BL/6J mouse cortical membrane by gamma counting; format: cell membranes
# [3] = target: T2, Neuronal acetylcholine receptor subunit alpha-6/beta-2 (Mus musculus, UniProt Q9ERK7+Q9R0W9); test: Inhibition of mouse alpha6alpha4beta3beta2 nAChR; format: protein-complex assay
# [4] = target: Neuronal acetylcholine receptor subunit alpha-7 (Mus musculus, UniProt P49582); test: Displacement of [125I]alpha-bungarotoxin from alpha7 nAChR in C57BL/6J mouse hippocampal membrane; format: tissue-based, Hippocampus
# [5] = Selectivity ratio, ratio of EC50 for alpha3beta4* nAChR in mouse to Ki for alpha6beta2*nAChR in mouse
# [6] = target: T3, Neuronal acetylcholine receptor subunit alpha-3/beta-4 (Mus musculus, UniProt Q8R493+Q8R4G9); test: Activity at alpha3beta4* nAChR in mouse interpeduncular nucleus assessed as [3H]ACh release by scintillation counting; format: tissue-based
# [7] = Selectivity ratio, ratio of EC50 for alpha3beta4* nAChR in mouse to Ki for alpha4beta2*nAChR in mouse
# [8] = target: T2, Neuronal acetylcholine receptor subunit alpha-6/beta-2; test: Displacement of [125I]-alpha-Conotoxin MII from alpha6beta2* nAChR in mouse olfactory tubercles, striatum and superior coliculus; format: tissue-based, Olfactory tubercle
# [9] = target: Nicotinic acetylcholine receptor alpha-4/beta-2 (Mus musculus) (UniProt Q9ERK7+Q8R493); test: Activity at alpha4beta2*nAChR in mouse striatal synaptosomes assessed as alpha-conotoxic MII-resistant DA release relative to control; format: subcellular; conditions: Brain
# [10] = target: T3, Neuronal acetylcholine receptor subunit alpha-3/beta-4; test: Activity at alpha3beta4* nAChR in mouse interpeduncular nucleus assessed as [3H]ACh release by scintillation counting relative to control; format: tissue-based
# [11] = target: Neuronal acetylcholine receptor subunit alpha-4/alpha-6/beta-2/beta-3 (Mus musculus, UniProt O70174+Q8BMN3+Q9ERK7+Q9R0W9); test: (§1) Activity at alpha6alpha4beta3beta2 nAChR in mouse striatal synaptosomes assessed as alpha-conotoxic […] DA release; format: subcellular, Brain
# [12] = target: T1, Nicotinic acetylcholine receptor alpha-4/beta-2; test: Activity at alpha4beta2*nAChR in mouse striatal synaptosomes assessed as alpha-conotoxic MII-resistant DA release; format: subcellular, Brain
# [13] = Selectivity ratio, ratio of EC50 for alpha3beta4* nAChR in mouse to EC50 for alpha4beta2*nAChR in mouse
# [14] = Selectivity ratio, ratio of EC50 for alpha3beta4* nAChR in mouse to EC50 for alpha6beta2*nAChR in mouse
# [15] = target: Neuronal acetylcholine receptor subunit alpha-4/alpha-6/beta-2/beta-3 (Mus musculus, UniProt Q9ERK7+O70174+Q9R0W9+Q8BMN3); test: as §1; format: subcellular, Brain
# T3 sequence (Q8R493 whole entry): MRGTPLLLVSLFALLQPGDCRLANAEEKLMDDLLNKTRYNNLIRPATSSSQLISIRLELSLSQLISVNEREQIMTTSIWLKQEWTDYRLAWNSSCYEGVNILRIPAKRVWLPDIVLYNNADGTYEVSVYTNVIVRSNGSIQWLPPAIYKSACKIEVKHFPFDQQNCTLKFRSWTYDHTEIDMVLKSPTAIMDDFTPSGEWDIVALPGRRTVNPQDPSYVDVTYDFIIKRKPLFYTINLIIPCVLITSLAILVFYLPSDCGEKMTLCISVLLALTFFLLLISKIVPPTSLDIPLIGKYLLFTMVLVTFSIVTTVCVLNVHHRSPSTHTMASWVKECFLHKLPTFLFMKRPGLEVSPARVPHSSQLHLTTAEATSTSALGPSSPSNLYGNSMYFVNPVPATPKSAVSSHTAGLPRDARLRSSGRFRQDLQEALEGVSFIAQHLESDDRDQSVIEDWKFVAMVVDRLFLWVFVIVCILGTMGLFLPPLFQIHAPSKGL
# T3 sequence (Q8R4G9 whole entry): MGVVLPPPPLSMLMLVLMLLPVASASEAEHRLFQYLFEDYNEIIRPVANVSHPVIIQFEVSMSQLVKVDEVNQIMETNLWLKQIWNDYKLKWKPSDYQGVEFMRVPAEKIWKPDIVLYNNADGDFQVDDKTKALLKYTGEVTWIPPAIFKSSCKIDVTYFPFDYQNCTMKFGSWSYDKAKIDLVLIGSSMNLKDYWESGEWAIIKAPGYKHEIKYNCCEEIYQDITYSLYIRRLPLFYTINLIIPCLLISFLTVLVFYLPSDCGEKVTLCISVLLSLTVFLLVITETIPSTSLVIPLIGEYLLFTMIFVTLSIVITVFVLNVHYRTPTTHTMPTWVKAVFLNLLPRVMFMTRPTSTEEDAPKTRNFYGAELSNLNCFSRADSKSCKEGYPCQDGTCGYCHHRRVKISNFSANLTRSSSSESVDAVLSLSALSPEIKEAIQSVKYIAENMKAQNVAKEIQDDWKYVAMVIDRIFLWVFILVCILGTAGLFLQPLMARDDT
# Neuronal acetylcholine receptor subunit alpha-4/alpha-6/beta-2/beta-3 (Mus musculus), sequence (O70174 31-629 partner limits assumed): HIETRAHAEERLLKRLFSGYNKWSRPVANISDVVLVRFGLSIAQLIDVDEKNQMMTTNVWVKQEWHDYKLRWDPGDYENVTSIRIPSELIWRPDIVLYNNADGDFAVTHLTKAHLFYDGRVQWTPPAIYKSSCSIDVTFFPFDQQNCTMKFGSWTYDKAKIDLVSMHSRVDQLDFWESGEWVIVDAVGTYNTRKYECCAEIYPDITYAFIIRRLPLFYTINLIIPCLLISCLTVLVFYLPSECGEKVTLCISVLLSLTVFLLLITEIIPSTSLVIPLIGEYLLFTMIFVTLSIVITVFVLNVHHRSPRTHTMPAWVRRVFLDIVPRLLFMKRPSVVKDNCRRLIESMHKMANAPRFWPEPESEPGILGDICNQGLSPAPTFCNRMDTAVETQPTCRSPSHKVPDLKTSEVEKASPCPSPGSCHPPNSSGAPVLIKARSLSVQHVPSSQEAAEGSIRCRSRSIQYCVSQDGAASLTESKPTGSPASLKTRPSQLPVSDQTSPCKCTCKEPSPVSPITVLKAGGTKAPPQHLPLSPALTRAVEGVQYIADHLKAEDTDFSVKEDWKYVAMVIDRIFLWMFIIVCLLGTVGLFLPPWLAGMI
# Neuronal acetylcholine receptor subunit alpha-4/alpha-6/beta-2/beta-3 (Mus musculus), sequence (Q8BMN3 31-464 partner limits assumed): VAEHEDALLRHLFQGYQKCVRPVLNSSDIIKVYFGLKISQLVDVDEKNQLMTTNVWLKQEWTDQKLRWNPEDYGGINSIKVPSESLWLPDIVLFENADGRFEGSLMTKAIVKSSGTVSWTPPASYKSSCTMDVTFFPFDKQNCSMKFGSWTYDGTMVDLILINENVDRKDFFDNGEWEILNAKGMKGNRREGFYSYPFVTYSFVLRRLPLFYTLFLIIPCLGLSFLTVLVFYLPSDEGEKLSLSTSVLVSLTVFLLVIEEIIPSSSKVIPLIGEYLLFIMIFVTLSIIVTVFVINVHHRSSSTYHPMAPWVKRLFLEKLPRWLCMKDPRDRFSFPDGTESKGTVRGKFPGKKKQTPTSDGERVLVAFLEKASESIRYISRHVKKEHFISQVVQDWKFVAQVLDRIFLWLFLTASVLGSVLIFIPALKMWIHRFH
# Neuronal acetylcholine receptor subunit alpha-4/alpha-6/beta-2/beta-3 (Mus musculus), sequence (Q9ERK7 26-501 limits assumed): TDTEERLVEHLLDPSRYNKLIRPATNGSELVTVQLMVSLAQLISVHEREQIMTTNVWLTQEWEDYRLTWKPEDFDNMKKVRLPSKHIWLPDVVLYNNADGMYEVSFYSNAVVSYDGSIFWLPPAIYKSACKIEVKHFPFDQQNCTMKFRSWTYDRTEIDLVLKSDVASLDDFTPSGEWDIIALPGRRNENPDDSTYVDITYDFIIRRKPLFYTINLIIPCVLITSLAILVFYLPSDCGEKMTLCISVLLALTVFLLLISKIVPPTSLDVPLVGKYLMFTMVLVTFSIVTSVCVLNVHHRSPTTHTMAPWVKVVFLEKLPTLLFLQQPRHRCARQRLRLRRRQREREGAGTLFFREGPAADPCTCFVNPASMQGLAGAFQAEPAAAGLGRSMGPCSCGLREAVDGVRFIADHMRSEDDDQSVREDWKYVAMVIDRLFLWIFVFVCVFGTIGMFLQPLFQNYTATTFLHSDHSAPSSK
# Neuronal acetylcholine receptor subunit alpha-4/alpha-6/beta-2/beta-3 (Mus musculus), sequence (Q9R0W9 31-494 partner limits assumed): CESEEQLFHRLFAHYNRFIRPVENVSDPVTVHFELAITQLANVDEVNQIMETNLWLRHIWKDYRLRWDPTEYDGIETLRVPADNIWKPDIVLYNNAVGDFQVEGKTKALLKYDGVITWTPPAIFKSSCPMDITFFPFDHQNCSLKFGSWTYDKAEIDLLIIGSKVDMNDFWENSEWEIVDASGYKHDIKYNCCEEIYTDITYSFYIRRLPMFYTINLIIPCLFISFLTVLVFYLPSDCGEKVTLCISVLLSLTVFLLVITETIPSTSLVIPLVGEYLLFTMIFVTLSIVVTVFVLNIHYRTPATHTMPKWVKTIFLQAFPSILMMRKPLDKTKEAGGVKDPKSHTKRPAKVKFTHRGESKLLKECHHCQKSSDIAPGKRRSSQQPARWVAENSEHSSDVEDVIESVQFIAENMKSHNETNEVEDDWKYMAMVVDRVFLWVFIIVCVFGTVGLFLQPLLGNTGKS
# Neuronal acetylcholine receptor subunit alpha-7, sequence (P49582 whole entry): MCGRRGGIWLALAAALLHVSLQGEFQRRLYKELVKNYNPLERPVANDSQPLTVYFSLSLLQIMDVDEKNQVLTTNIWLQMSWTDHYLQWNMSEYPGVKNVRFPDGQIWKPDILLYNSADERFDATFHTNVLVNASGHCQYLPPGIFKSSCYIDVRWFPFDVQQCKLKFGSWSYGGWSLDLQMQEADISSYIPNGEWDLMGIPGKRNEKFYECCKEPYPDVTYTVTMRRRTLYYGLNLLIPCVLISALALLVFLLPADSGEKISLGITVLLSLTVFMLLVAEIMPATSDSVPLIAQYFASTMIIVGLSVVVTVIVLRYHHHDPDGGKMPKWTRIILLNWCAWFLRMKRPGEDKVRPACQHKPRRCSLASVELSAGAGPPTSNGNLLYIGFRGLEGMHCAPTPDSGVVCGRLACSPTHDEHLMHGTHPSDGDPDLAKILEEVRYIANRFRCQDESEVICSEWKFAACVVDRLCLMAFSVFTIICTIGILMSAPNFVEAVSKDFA
# T2 sequence (Q9ERK7 whole entry): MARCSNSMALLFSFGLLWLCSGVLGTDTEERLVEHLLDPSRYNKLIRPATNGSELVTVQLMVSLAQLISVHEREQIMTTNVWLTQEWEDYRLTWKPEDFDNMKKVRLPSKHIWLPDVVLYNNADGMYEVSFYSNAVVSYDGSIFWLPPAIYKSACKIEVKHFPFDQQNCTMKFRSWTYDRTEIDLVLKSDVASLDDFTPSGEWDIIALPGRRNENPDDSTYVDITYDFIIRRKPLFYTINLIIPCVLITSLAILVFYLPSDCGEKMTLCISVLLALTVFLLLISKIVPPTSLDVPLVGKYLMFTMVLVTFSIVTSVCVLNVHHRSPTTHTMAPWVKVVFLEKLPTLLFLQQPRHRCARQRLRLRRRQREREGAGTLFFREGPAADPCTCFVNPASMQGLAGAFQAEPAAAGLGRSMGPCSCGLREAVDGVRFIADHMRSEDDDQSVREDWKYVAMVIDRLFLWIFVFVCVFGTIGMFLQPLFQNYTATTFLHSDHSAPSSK
# T2 sequence (Q9R0W9 whole entry): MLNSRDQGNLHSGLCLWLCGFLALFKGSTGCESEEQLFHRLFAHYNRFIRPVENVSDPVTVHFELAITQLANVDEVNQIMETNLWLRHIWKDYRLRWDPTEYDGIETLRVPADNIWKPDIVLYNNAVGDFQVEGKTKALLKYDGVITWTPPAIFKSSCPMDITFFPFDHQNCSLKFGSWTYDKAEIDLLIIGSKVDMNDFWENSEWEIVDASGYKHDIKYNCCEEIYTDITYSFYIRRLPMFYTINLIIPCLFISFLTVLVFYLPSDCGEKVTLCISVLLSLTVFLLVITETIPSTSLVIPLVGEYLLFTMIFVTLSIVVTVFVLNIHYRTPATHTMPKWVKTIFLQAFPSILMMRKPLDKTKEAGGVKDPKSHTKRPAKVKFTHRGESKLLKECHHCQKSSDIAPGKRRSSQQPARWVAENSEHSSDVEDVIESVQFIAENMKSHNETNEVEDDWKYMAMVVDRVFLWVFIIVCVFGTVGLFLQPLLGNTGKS
# T1 sequence (Q9ERK7 whole entry): as the sequence (Q9ERK7 whole entry) above
# T1 sequence (Q8R493 whole entry): as the sequence (Q8R493 whole entry) above
SMILES,Imax [1] [%],pKi [2],pKi [3],pKi [4],Ratio [5],Emax [6] [%],Ratio [7],pKi [8],Imax [9] [%],pEC50 [10],Emax [9] [%],pEC50 [11],pEC50 [12],Emax [1] [%],Ratio EC50 [13],Ratio EC50 [14],EC50 [15]
c1cncc(CC2CC3CCN2CC3)c1 (stereo not given),96,,,,,,,,,,,,,,,,
O=C(O)C(F)(F)F.c1ncc(CC2CC3CCN2CC3)cn1 (stereo not given),91,7.23,5.60,5.59,11.2,106,87.5,6.94,92,4.55,,,,,,,
C(#C[C@H]1CCCN1)c1cncnc1,,7.52,,5.24,,74,,6.47,,4.47,64,5.92,5.49,134,,,
CN1C2C=C(c3cncnc3)CC1CC2.O=C(O)C(F)(F)F (stereo not given),,8.92,,5.04,,35,,7.77,,4.39,45,7.00,5.74,77,22.7,410,
C(=C\[C@@H]1CCNC1)/c1cncnc1.O=C(O)[C@@H](O)[C@H](O)[C@H](O)[C@@H](O)C(=O)O,,7.62,,< 5.00,,97,,6.49,,3.79,133,6.28,4.72,48,8.5,304,
C(#C[C@H]1CCCN1)c1cccnc1.O=C(O)[C@@H](O)[C@H](O)[C@H](O)[C@@H](O)C(=O)O,,7.70,,6.13,,81,,6.62,,5.25,120,6.15,4.89,42,0.4,8,
O=C(O)C(F)(F)F.c1ncc(C2CC3CCN2CC3)cn1 (stereo not given),,8.74,,5.96,,95,,8.10,,5.62,43,7.05,6.35,104,5.3,26.7,
C(=C\[C@@H]1CCNC1)/c1cccnc1.O=C(O)C(F)(F)F,,7.96,,5.50,,58,,6.74,,4.80,109,6.10,5.36,66,3.6,20,
CNCC/C=C/c1cccnc1.O=C(O)[C@@H](O)[C@H](O)[C@H](O)[C@@H](O)C(=O)O,,7.60,,< 5.00,,45,,5.81,,3.66,122,,5.08,0,26,,Not Active
c1cncc(C2CC3CCN2CC3)c1 (stereo not given),,,,,,,,,,,29,,,,,,
C(#C[C@H]1CCCN1)c1cncnc1.O=C(O)[C@@H](O)[C@H](O)[C@H](O)[C@@H](O)C(=O)O,,,,,,,,,,,,,,,10.6,28,
CN1C2C=C(c3cccnc3)CC1CC2.Cl.Cl (stereo not given),,8.01,,5.68,,71,,7.26,,4.68,75,6.70,5.47,50,6.2,105,
CNCC/C=C/c1cncnc1.O=C(O)[C@@H](O)[C@H](O)[C@H](O)[C@@H](O)C(=O)O,,7.16,,< 5.00,,4,,5.97,,5.02,73,4.43,5.23,80,1.6,0.26,
